The target in the test is T1, isomerase (Mus musculus, UniProt Q91ZQ5).
T1 construct: The recovery of 11-cis-retinal after bleaching can be used to estimate the activity of isomerase in vivo; from tissue; host or cells: eyes of living CD-1 and Balb/c male mice
T1 sequence (Q91ZQ5 1-533): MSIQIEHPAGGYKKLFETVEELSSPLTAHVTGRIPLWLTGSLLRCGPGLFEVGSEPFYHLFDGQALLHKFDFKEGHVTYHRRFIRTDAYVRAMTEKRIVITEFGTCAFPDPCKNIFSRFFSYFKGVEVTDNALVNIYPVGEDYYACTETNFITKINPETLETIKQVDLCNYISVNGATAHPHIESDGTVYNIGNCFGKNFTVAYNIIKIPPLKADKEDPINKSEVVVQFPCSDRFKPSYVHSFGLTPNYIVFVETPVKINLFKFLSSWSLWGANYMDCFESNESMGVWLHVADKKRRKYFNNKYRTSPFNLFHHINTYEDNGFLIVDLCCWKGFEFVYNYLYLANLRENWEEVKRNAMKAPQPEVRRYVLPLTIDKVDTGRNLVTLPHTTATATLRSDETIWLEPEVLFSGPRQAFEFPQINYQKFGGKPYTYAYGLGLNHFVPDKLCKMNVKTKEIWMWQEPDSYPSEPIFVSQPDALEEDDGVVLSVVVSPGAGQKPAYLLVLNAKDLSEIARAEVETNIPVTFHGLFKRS
Description: In vivo murine isomerase assay (recovery of 11-cis-retinal after photobleaching). The arrangement: species or system mice. Particulars: for inhibition in vivo at 1 mg/kg / inhibition in vivo at 5 mg/kg / ED50 / inhibition at 1 mg/kg / inhibition at 5 mg/kg: mouse; for inhibition in vivo at 1 mg/kg / inhibition in vivo at 5 mg/kg: read-out: % Inibition; for ED50 / inhibition at 1 mg/kg / inhibition at 5 mg/kg: po; for ED50: read-out: ED50 (dose of compound that gives 50% inhibition of 11-cis retinal (oxime) recovery), estimated, male Balb/c mice, HCl salts dosed orally in mg/kg; for ED50 / inhibition of isomerase activity in vivo (figure legend): photobleached 4 hours after dosing; for inhibition of isomerase activity in vivo (figure legend): oral dose response, Balb/c mice; for isomerase inhibitory activity / inhibition at 1 mg/kg / inhibition at 5 mg/kg: CD1 male mice. How it is done:
The capability of alkynyl phenyl-linked amine derivatives to inhibit isomerase is determined by an in vivo murine isomerase assay. Brief exposure of the eye to intense light (“photobleaching” of the visual pigment or simply “bleaching”) is known to photo-isomerize almost all 11-cis-retinal in the retina. The recovery of 11-cis-retinal after bleaching can be used to estimate the activity of isomerase in vivo. Delayed recovery, as represented by lower 11-cis-retinal oxime levels, indicates inhibition of isomerization reaction. Procedures were performed essentially as described by Golczak et al., Proc. Natl. Acad. Sci. […] See also Deigner et al., Science, 244: 968-71 (1989); […] Parish, et al., Proc. Natl. Acad. Sci. USA, 14609-13 (1998); […] Six-week old dark-adapted CD-1 (albino) male mice were orally gavaged with compound (0.03-3 mg/kg) dissolved in 100 μl corn oil containing 10% ethanol (five animals per group). […] After 2-24 hours in the dark, the mice were exposed to photobleaching of 5,000 lux of white light for 10 minutes. The mice were allowed to recover 2 hours in the dark. The animals were then sacrificed by carbon dioxide inhalation. Retinoids were extracted from the eye and the regeneration of 11-cis-retinal was assessed at various time intervals. All steps were performed in darkness with minimal redlight illumination (low light darkroom lights and […] flashlights for spot illumination as needed) (see, e.g., Maeda et al., J. Neurochem 85:944-956, 2003; Van Hooser et al., J Biol Chem 277:19173-82, 2002). After the mice were sacrificed, the eyes were immediately removed and placed in liquid nitrogen for storage. The eyes were placed in 500 μL of bis-tris propane buffer (10 mM, pH 7.3) and 20 μL of 0.8M hydroxile amine (pH-7.3). The eyes were cut up into small pieces with small iris scissors and then thoroughly homogenized at 30000 rpm with a mechanical homogenizer (Polytron PT 1300 D) in the tube until no visible tissue remained. 500 μL of methanol and 500 μL of heptane were added to each tube. The tubes were attached to a vortexer so that the contents were mixed thoroughly for 15 minutes in room temperature. […] The samples were analyzed on an Agilent 1100 HPLC system with normal phase column: SILICA (Beckman Coutlier, dp 5 μm, […]). The running method has a flow rate of 1.5 ml/min; solvent components are 15% solvent 1 (1% isopropanol in ethyl acetate), and 85% solvent 2 (100% hexanes). Loading volume for each sample is 100 μl; detection wavelength is 360 nm. The area under the curve for 11-cis retinal oxime was calculated by Agilent Chemstation software and was recorded manually. Data processing was performed using Prizm software. Positive control mice (no compound administered) were sacrificed fully dark-adapted and the eye retinoids analyzed. Light (bleached) control mice (no compound administered) were sacrificed and retinoids isolated and analyzed immediately after light treatment. […] Animals that received Compound 19 HCl were orally dosed with 0.01 and 1 mg/kg of compound in sterile water as solution, and photobleached 4 hours after dosing. Recovery and retinoid analysis were performed as described above. Dark control mice were vehicle-only treated, sacrificed fully dark adapted without light treatment, and analyzed. […] A time course study was performed to determine the isomerase inhibitory activity of Compounds 2, 18 and 19. Male Balb/c mice (4/group) received 3 mg Compound 2-HCl, Compound 18-HCl or Compound 19-HCl (in water) per kg bodyweight orally, by gavage. The animals were then “photo-bleached” (5000 Lux white light for 10 minutes) at 2, 4, 8, 16 and 24 hours after dosing, and returned to darkness to allow recovery of the 11-cis-retinal content of the eyes. Mice were sacrificed 2 hours after bleaching, eyes were enucleated, and retinoid content was analyzed by HPLC. A single dose study of the compound of Example 36 (Compound 36) was performed, at 1 mg/kg and 5 mg/kg oral dosing, 2, 4, 6, and 24 hours post bleaching. […]

Data on 22 molecules can be found in patent US8492589B2, “Alkynyl phenyl derivative compounds for treating ophthalmic diseases and disorders” (Acucela Inc., priority 2007, dated 2013).

Where two headings read alike, the source gives them in different places.

For orientation: ED50 means the dose at which the effect has come halfway, by size or by number of responders. As usually defined, the inhibition is how much of the control response was suppressed. Read a high inhibition as a response far below the control.

For `CCC(O)(C#Cc1cccc(CCCN)c1)CC` [Example 1, 1-(3-(3-Aminopropyl)phenyl)-3-ethylpent-1-yn-3-ol], the inhibition in vivo at 1 mg/kg (4 h) worked out at 3% and the inhibition in vivo at 1 mg/kg (24 h) stood at 0%.
For `CCCC(C#Cc1cccc(CCCN)c1)(CCC)OC` [Example 4, 3-(3-(3-Methoxy-3-propylhex-1-ynyl)phenyl)propan-1-amine], the inhibition in vivo at 1 mg/kg was 21% (4 h) and 0% (24 h). In addition, the inhibition in vivo at 5 mg/kg runs as follows: (4 h) 95%; (24 h) 0%.
Take `NCCC(O)c1cccc(C#CCCO)c1` (centres unmarked) [Example 51, 4-(3-(3-Amino-1-hydroxypropyl)phenyl)but-3-yn-1-ol]: the inhibition in vivo at 1 mg/kg is, setting by setting: (4 h) 0%; (24 h) 0%.
Turning to `CC(C)(C)C(C)(O)C#Cc1cccc(CCCN)c1` (centres unmarked) [Example 25, 1-(3-(3-Aminopropyl)phenyl)-3,4,4-trimethylpent-1-yn-3-ol], the inhibition in vivo at 1 mg/kg by setting is: (4 h) 1%; (24 h) 0%.
For `NCCC(O)c1cccc(C#CC2(O)CCCCCC2)c1` (centres unmarked) [Example 59, 1-((3-(3-Amino-1-hydroxypropyl)phenyl)ethynyl)cycloheptanol] the same measures were 31% and 0%.
As for `NCCOc1cccc(C#Cc2cccnc2)c1` [Example 62, 2-(3-(Pyridin-3-ylethynyl)phenoxy)ethanamine], the inhibition in vivo at 1 mg/kg is, setting by setting: (4 h) 0%; (24 h) 0%.
In the case of `NCCOc1cccc(C#CC2CCCC2)c1` [Example 79, 2-(3-(Cyclopentylethynyl)phenoxy)-ethanamine], the inhibition in vivo at 1 mg/kg stood at 7% (4 h) and 1% (24 h).
Consider `CCCC(O)C#Cc1cccc(CCCN)c1` (centres unmarked) [Example 8, 1-(3-(3-Aminopropyl)phenyl)hex-1-yn-3-ol], for which the inhibition in vivo at 5 mg/kg (4 h) was found to be 0% and the inhibition in vivo at 5 mg/kg (24 h) came out at 0%.
As to `CC(C)C(O)(C#Cc1cccc(OCCN)c1)C(C)C` [Example 28, 1-(3-(2-Aminoethoxy)phenyl)-3-isopropyl-4-methylpent-1-yn-3-ol], the inhibition in vivo at 1 mg/kg runs as follows: (4 h) 27%; (24 h) 0%.
With `NCCCc1cccc(C#CC2(O)CCCC2)c1` [Example 24, 1-((3-(3-Aminopropyl)phenyl)ethynyl)cyclopentanol], under “4 h”, the inhibition in vivo at 1 mg/kg amounted to 0% and the inhibition in vivo at 5 mg/kg stood at 27%. Moreover, under “24 h”, the inhibition in vivo at 1 mg/kg is 0% and the inhibition in vivo at 5 mg/kg came out at 0%.
Regarding `NCCOc1cccc(C#CC2(O)CCCC2)c1` [Example 31, 1-((3-(2-Aminoethoxy)phenyl)ethynyl)cyclopentanol], the inhibition in vivo at 1 mg/kg runs as follows: (4 h) 18%; (24 h) 0%.
Consider `CCCC(O)(C#Cc1cccc(CCCN)c1)CCC` [Example 2, 4-((3-(3-Aminopropyl)phenyl)ethynyl)heptan-4-ol], for which the ED50 is 0.69 mg/kg and the “inhibition of isomerase activity in vivo (figure legend)” value was “concentration-dependent inhibition”.
`NCCCc1cccc(C#CC2(O)CCCCC2)c1` [Example 11, 1-((3-(3-Aminopropyl)phenyl)ethynyl)cyclohexanol]: under “4 h”, the inhibition in vivo at 1 mg/kg was 0% and the inhibition in vivo at 5 mg/kg amounted to 17%. Besides, under “24 h”, the inhibition in vivo at 1 mg/kg was 0% and the inhibition in vivo at 5 mg/kg was 0%.
`NCCOc1cccc(C#CC2(O)CCCCCC2)c1` [Example 78, 1-((3-(2-aminoethoxy)phenyl)ethynyl)-cycloheptanol]: the inhibition in vivo at 1 mg/kg (4 h) was found to be 0% and the inhibition in vivo at 1 mg/kg (24 h) is 0%.
As for `NCCCc1cccc(C#C[C@@H](O)c2ccccc2)c1` [Example 26, (S)-3-(3-(3-Aminopropyl)phenyl)-1-phenylprop-2-yn-1-ol], the inhibition in vivo at 1 mg/kg reads like this: (4 h) 18%; (24 h) 0%.
For `NCCC(O)c1cccc(C#CC2CCCCC2)c1` (centres unmarked) [Example 52, 3-Amino-1-(3-(Cyclohexylethynyl)Phenyl)Propan-1-ol] the same measures were 72% and 2%.
For `NCCOc1cccc(C#CC2(O)CCSCC2)c1` [Example 55, 4-((3-(2-Aminoethoxy)Phenyl)Ethynyl)Tetrahydro-2H-Thiopyran-4-ol] the same measures were 16% and 7%.
For `NCCCc1cccc(C#Cc2ccncc2)c1` [Example 63, 3-(3-(Pyridin-4-ylethynyl)phenyl)propan-1-amine], the inhibition in vivo at 1 mg/kg amounted to 11% (4 h) and 0% (24 h).
As for `COc1ccccc1C#Cc1cccc(CCCN)c1` [Example 36, 3-(3-((2-Methoxyphenyl)Ethynyl)Phenyl)Propan-1-Amine], the “isomerase inhibitory activity” value is “inactive” (1 mg/kg single oral dose) and “full recovery” (5 mg/kg single oral dose, at 24 h). For the same molecule, the inhibition at 1 mg/kg by setting is: (1 mg/kg single oral dose, 2 h) 6%; (1 mg/kg single oral dose, 6 h) 5%; (1 mg/kg single oral dose, 24 h) 0%. Moreover, the inhibition at 5 mg/kg by setting is: (5 mg/kg single oral dose, 2 h) 46%; (5 mg/kg single oral dose, 6 h) 45%; (5 mg/kg single oral dose, 24 h) 0%.
In the case of `NCCOc1cccc(C#CC2(O)CCCCC2)c1` [Example 57, 1-((3-(2-Aminoethoxy)phenyl)ethynyl)cyclohexanol], the inhibition in vivo at 1 mg/kg was 8% (4 h) and 21% (24 h).
As for `NCCCc1cccc(C#Cc2ccccn2)c1` [Example 61, 3-(3-(Pyridin-2-ylethynyl)phenyl)propan-1-amine], the inhibition in vivo at 1 mg/kg is, setting by setting: (4 h) 0%; (24 h) 0%.
Take `CCCC(O)(C#Cc1cccc([C@H](O)CCN)c1)CCC` [Compound 100, (R)-4-((3-(3-Amino-1-Hydroxypropyl)Phenyl)Ethynyl)Heptan-4-ol]: the ED50 was 0.2 mg/kg and the “inhibition of isomerase activity in vivo (figure legend)” value is reported as “concentration-dependent inhibition”.
